Laboratory results from patent publication US20100028889A1, “COMPANION DIAGNOSTIC ASSAYS FOR CANCER THERAPY” (ABBOTT LABORATORIES, priority 2006, published 2010).
Where two headings read alike, the source gives them in different places.

How the values were obtained:
I9.2 = assay: cell cytotoxicity EC50, CellTiter Glo, leukemia/lymphoma cell line; format: cell-based, human
Experimental: (§1) The SCLC and leukemia/lymphoma cell lines listed below were obtained from the American Type Culture Collection (Manassas, Va.), Deutsche Sammlung von Mikroorganismen und Zellkulturen (DSMZ, Braunsweig, Germany), or were the generous gift from Dr. Louis Staudt (National Cancer Institute) and were cultured as described in Tse, C., Shoemaker, A. R., Adickes, J., et al., “ABT-263: a potent and orally bioavailable Bcl-2 family inhibitor,” Cancer Res 2008; 68: 3421-3428; and Tahir, S. K., Yang, X., Anderson, M. G., et al., “Influence of Bcl-2 family members on the cellular response of small-cell lung cancer cell lines to ABT-737,” Cancer Res 2007; 67: 1176-1183.
(§2) Cells were treated at 10,000 or 50,000 cells per well for adherent or suspension cells, respectively, in 96-well microtiter plates in the presence of 10% human serum for 48 hours with or without ABT-263, in a humidified chamber with 5% CO2. ABT-263 was synthesized as previously described in Tse, C., Shoemaker, A. R., Adickes, J., et al., “ABT-263: a potent and orally bioavailable Bcl-2 family inhibitor,” Cancer Res 2008; 68: 3421-3428; and Oltersdorf, T., Elmore, S. W., Shoemaker, A. R., et al., “An inhibitor of Bcl-2 family proteins induces regression of solid tumours,” Nature 2005; 435: 677-681, and cell cytotoxicity EC50 values were assessed using CellTiter Glo (Promega, Madison Wis.).

Reh = assay: as above; format: cell-based, human
Experimental: as §1, §2

MOLT-4 = assay: as above; format: cell-based, human
Experimental: as §1, §2

NCI-H526 = assay: sensitivity of SCLC cell line, procedure of Oltersdorf; format: cell-based; conditions: Homo sapiens, read-out: sensitivity class by EC50
Experimental: (§3) The following SCLC cell lines were obtained from ATCC (Manassis, Va.): NCI-H889, NCI-H1963, NCI-H1417, NCI-H146, NCI-H187, DMS53, NCI-H510, NCI-H209, NCI-H211, NCI-H345, NCI-H524, NCI-H69, DMS79, SHP77, NCI-H1688, NCI-H446, NCI-H740, NCI-H1048, NCI-H82, NCI-H196, SW1271, H69AR, NCI-H526, NCI-H865, NCI-H748, NCI-H711, and DMS114. All cells were cultured in the ATCC recommended media at 37° C. in a humidified atmosphere containing 5% CO2. The following leukemia and lymphoma cell lines were obtained from ATCC (Manassis, Va.): MV-4-11, RS4;11, Loucy, KG-1A, DOHH2, Rs11380, CCRF-HSB-2, CCRF-CEM, CEM/C1, Reh, SUP-B15, MOLT-4, SUDHL4, HL-60, RPMI 8226, A3, Daudi, WSU-NHL, Pfeiffer, Jurkat I 9.2, Jurkat, MEG-01, U-937, K-562, and Raji.
(§4) The 27 SCLC cell lines were tested for sensitivity to ABT-737 using the procedure described in Oltersdorf, T., “An inhibitor of Bcl-2 family proteins induces regression of solid tumours”, Nature, 435: 677-681, 2005, with a cell line classified as sensitive if its EC50<5 μM and as resistant if its EC50>5 µM. The sensitive cell line group consisted of NCI-H889, NCI-H1963, NCI-H1417, NCI-H146, DMS 53, NCI-H187, NCI-H510, NCI-H209, NCI-H345, NCI-H526, NCI-H211, NCI-H865, NCI-H524, NCI-H748, DMS 79, NCI-H69, NCI-H711, SHP 77, NCI-H1688, and the resistant cell line group was comprised of NCI-H446, NCI-H740, NCI-H1048, NCI-H82, NCI-H196, SW1271, DMS 114, and NCI-H69AR.

NCI-H748 = assay: as above; format: cell-based; conditions: Homo sapiens, read-out: sensitivity class by EC50
Experimental: as §3, §4

NCI-H865 = assay: as above; format: cell-based; conditions: Homo sapiens, read-out: sensitivity class by EC50
Experimental: as §3, §4

NCI-H711 = assay: as above; format: cell-based; conditions: Homo sapiens, read-out: sensitivity class by EC50
Experimental: as §3, §4

NCI-H524 = assay: as above; format: cell-based; conditions: Homo sapiens, read-out: sensitivity class by EC50
Experimental: as §3, §4

[1] = test system: diverse panel of human cancer cell lines; conditions: cited from earlier work
[2] = 10% human serum, 48 hours, read-out: EC50
[3] = Homo sapiens, read-out: Response Designation

| EC50 (NCI-H526) [µM] | EC50 (NCI-H748) [µM] | EC50 (NCI-H865) [µM] | EC50 (NCI-H711) [µM] | EC50 (NCI-H524) [µM] | Structure (SMILES) | EC50 (I9.2; [2]) [µM] | EC50 (I9.2; [3]) [µM] | EC50 (Reh; [2]) [µM] | EC50 (Reh; [3]) [µM] | EC50 (MOLT-4; Homo sapiens, MOLT-4, read-out: Response Designation) [µM] | EC50 (MOLT-4; Molt-4, 10% human serum, 48 hours, read-out: EC50) [µM] | potency across a diverse panel of human cancer cell lines [1] |
| --- | --- | --- | --- | --- | --- | --- | --- | --- | --- | --- | --- | --- |
|  |  |  |  |  | CC1(C)CCC(c2ccc(Cl)cc2)=C(CN2CCN(c3ccc(C(=O)NS(=O)(=O)c4ccc(N[C@H](CCN5CCOCC5)CSc5ccccc5)c(S(=O)(=O)C(F)(F)F)c4)cc3)CC2)C1 [ABT-263, N-(4-(4-((2-(4-chlorophenyl)-5,5-dimethyl-1-cyclohex-1-en-1-yl)methyl)piperazin-1-yl)benzoyl)-4-(((1R)-3-(morpholin-4-yl)-1-((phenylsulfanyl)methyl)propyl)amino)-3-((trifluoromethyl)sulfonyl)benzenesulfonamide] | 1.8 | ≤ 4.8 | 0.434 | ≤ 4.8 | ≤ 4.8 | 0.385 |  |
| < 5 | < 5 | < 5 | < 5 | < 5 | CN(C)CC[C@H](CSc1ccccc1)Nc1ccc(S(=O)(=O)NC(=O)c2ccc(N3CCN(Cc4ccccc4-c4ccc(Cl)cc4)CC3)cc2)cc1[N+](=O)[O-] [ABT-737, N-(4-(4-((4′-chloro(1,1′-biphenyl)-2-yl)methyl)piperazin-1-yl)benzoyl)-4-(((1R)-3-(dimethylamino)-1-((phenylsulfanyl)methyl)propyl)amino)-3-nitrobenzenesulfonamide] |  |  |  |  |  |  | selective potency against SCLC and lymphoma cell lines |
